The results in this text go back to publication PMC6658998, “Pharmacological characterization of the seven human NOX isoforms and their inhibitors” (Redox Biology, 2019).

One data set concerns the target T1, DUOX2 (Homo sapiens, UniProt Q9NRD8).
T1 construct: expressed in transfected cells; host or cells: HEK293, selected with G418 and zeocin
As to the kind of experiment: Amplex Red/HRP H2O2 detection in DUOX2-expressing HEK293 cells. It is filed as cell-based. Conditions: PMA 0.1 μM and ionomycin 1 μM, read-out: IC50 DUOX2 (HEK) AR.

Data set [1] is described as follows: DPPH free radical scavenging assay (absorbance). Conditions: cell-free, DPPH in methanol, 15 min; read-out: Scavenging effect IC50 Absorbance DPPH.
Protocol: (§1) This assay allows to detect H2O2 scavengers as well as HRP inhibitors. (iii) Another assay for determining antioxidant activity analyzes serial dilutions of compounds in the presence of free radical DPPH in methanol in transparent 96-well plates (200 μl/well). Absorbance was measured at 540 nm after 15 min incubation in the dark. All scavenging assays were performed with FlexStation 3 Multi-Mode Microplate Reader (Molecular Devices).
A short description of data set [2]: Cell-free Amplex Red/HRP assay with 10 μM H2O2 (H2O2 scavenging / HRP inhibition). Conditions: 10 μM H2O2, Amplex Red/HRP, read-out: Scavenging effect IC50 AR H2O2.
Protocol: as §1
For data set [3], the target named is T2, NOX5 (Homo sapiens, UniProt Q96PH1).
T2 construct: expressed in transfected cells
T2 sequence (Q96PH1 19-737 isoform Q96PH1-3 limits assumed): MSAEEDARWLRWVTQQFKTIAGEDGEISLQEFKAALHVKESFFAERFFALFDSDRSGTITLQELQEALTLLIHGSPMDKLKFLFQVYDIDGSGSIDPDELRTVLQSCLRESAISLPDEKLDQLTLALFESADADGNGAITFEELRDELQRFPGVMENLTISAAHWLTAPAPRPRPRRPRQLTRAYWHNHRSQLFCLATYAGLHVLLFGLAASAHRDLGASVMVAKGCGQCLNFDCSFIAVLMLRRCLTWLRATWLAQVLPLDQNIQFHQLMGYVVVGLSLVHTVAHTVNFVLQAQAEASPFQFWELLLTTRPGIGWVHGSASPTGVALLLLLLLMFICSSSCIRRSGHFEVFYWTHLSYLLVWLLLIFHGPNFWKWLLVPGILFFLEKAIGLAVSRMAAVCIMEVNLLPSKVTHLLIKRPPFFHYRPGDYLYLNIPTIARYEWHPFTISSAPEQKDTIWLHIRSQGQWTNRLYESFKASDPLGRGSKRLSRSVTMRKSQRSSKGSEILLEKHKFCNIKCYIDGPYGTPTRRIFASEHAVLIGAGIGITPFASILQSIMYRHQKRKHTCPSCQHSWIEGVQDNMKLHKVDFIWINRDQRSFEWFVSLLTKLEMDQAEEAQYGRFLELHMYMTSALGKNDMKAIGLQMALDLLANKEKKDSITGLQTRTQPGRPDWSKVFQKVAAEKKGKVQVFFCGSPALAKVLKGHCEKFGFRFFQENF
The data set can be described thus: Amplex Red/HRP H2O2 detection in NOX5-expressing HEK293 cells. Type of data set: cell-based. The following applies: PMA 0.1 μM and ionomycin 1 μM, read-out: IC50 NOX5 (HEK) AR.

The next data set deals with T3, human NOX1 (Homo sapiens, UniProt Q9Y5S8).
T3 construct: expressed in transfected cells; host or cells: CHO
T3 sequence (Q9Y5S8 1-564): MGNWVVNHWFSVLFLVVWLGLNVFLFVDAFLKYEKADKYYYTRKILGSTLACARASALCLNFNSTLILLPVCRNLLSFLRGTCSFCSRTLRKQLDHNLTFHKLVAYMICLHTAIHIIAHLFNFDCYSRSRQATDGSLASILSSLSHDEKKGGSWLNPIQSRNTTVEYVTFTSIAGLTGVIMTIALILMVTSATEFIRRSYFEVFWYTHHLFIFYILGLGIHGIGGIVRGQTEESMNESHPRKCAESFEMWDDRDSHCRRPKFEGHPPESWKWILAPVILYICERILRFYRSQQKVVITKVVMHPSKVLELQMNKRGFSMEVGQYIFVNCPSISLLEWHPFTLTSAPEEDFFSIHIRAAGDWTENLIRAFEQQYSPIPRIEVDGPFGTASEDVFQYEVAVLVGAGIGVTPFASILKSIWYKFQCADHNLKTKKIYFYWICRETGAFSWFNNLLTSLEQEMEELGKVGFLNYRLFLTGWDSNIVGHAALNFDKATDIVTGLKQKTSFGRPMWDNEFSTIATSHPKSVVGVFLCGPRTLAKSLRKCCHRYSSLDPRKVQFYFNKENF
T3 sequence (P13498 1-195 partner): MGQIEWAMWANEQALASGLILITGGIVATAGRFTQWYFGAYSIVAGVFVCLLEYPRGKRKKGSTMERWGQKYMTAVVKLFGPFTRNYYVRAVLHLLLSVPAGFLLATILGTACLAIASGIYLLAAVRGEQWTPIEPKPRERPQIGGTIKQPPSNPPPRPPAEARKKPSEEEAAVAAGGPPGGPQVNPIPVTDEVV
The data set can be described thus: Amplex Red/HRP H2O2 detection in NOX1-expressing CHO cells. It is filed as cell-based. Conditions: PMA 0.1 μM, read-out: IC50 NOX1 (CHO) AR.

Another data set can be described thus: in vitro. Conditions: Chinese hamster.
The target in data set [4] is T2, NOX5. As to the kind of experiment: WST-1 O2•- detection in NOX5-expressing HEK293 cells. It is filed as cell-based. Conditions: WST-1, PMA 0.1 μM and ionomycin 1 μM; read-out: IC50 NOX5 (HEK) WST-1.

Some results are limits rather than exact numbers.

T1 sequence (Q9NRD8 26-1548): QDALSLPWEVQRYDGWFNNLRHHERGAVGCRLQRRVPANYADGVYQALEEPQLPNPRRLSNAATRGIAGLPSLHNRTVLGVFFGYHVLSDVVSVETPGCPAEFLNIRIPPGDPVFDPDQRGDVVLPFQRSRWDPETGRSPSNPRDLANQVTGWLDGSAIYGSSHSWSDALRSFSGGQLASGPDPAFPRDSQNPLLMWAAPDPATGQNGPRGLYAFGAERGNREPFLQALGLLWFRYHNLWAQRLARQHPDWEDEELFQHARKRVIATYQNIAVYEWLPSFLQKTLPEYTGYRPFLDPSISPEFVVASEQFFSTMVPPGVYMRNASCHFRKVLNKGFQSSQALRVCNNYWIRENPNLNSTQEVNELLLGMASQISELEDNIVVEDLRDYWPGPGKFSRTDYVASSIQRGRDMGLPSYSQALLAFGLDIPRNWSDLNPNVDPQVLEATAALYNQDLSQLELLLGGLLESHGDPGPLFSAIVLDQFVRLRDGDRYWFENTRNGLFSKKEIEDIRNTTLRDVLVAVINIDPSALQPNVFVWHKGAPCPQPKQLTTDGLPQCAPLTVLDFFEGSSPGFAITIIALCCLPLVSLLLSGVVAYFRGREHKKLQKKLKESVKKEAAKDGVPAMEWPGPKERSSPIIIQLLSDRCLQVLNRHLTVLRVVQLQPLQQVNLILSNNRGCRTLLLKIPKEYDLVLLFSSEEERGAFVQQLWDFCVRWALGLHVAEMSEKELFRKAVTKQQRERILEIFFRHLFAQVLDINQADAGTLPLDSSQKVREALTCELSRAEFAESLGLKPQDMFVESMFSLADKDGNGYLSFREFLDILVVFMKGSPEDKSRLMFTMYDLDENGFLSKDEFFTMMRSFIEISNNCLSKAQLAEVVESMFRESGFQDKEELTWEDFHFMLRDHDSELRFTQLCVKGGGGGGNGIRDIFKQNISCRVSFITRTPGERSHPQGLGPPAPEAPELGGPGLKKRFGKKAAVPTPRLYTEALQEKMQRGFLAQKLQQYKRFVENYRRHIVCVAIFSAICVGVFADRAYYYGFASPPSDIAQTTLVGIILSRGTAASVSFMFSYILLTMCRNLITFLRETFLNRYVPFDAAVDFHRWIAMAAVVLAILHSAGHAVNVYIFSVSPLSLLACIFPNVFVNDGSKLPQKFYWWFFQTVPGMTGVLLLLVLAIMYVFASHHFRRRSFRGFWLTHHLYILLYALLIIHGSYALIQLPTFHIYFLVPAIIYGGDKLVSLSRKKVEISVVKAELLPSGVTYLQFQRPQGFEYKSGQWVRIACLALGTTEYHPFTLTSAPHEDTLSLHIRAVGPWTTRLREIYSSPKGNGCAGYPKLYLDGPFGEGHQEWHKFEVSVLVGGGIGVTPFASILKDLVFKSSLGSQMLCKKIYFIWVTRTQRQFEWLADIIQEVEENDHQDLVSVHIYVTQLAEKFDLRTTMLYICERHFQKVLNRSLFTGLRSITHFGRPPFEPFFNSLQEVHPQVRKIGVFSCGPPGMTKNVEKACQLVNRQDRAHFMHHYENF
T1 sequence (Q1HG44 whole entry partner): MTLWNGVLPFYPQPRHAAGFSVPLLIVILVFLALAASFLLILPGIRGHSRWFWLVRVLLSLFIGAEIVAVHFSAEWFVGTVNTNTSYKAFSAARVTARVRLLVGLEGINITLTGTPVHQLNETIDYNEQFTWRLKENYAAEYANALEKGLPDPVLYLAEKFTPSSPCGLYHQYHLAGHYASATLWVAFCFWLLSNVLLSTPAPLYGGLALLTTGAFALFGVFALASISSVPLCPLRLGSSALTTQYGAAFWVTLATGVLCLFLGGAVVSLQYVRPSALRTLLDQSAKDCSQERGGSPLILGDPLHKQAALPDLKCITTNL
Protocol for in vitro: The effect of the compounds on cell viability was obtained using the Calcein-AM assay. […] Cells suspensions were prepared in HBSS. Cells were preincubated at 50,000 cells/well with compounds for 10 min at room temperature before addition of 4 μM Calcein-AM. Then the plate was incubated at 37 °C for 1 h in the dark. Intracellular Calcein fluorescence was measured using Spectramax Paradigm (Molecular Devices) at 485 nm excitation and 520 nm emission.

Regarding `COc1cc(C(C)=O)ccc1O` [Apocynin, apocynin], the 50% inhibitory concentration (IC50) (at DUOX2; in data set [1]; in data set [2]; on NOX5 [3]; on human NOX1; at NOX5 [4]) was greater than 50 µM in each case. Moreover, the CC50 at 1 h in the data set “in vitro” is greater than 50 µM.
With `COc1cc(C(C)=O)cc(-c2cc(C(C)=O)cc(OC)c2O)c1O` [Diapocynin, diapocynin], the IC50 at DUOX2 was 21.7 µM; in data set [1], greater than 50 µM; in data set [2], 11.5 µM; on NOX5 [3] it was 16.6 µM; at human NOX1, 32.7 µM; on NOX5 [4] it was greater than 50 µM. Further, the CC50 at 1 h in the data set “in vitro” (CHO cells) is greater than 50 µM.
With `O=c1c2ccccc2[se]n1-c1ccccc1` [Ebselen, ebselen], the IC50 was 4.2 µM at DUOX2; greater than 50 µM in data set [1]; 3.3 µM in data set [2]; 2.1 µM at NOX5 [3]; 2.9 µM on human NOX1. This compound displayed a CC50 at 1 h in “in vitro” (CHO cells) of 3.3 µM.
For the compound `c1ccc2c(c1)[I+]c1ccccc1-2` [DPI, diphenylene iodonium chloride], the IC50 in data set [1] and in data set [2] was greater than 50 µM each time. This compound registered a CC50 at 1 h in the data set “in vitro” greater than 50 µM.
Consider `Cc1c2c(=O)n(-c3ccccc3Cl)[nH]c2cc(=O)n1Cc1ccccn1` [GKT136901], for which the IC50 was 9.8 µM on DUOX2; 21.7 µM in data set [1]; 1.9 µM in data set [2]; 8 µM on NOX5 [3]; 9.2 µM at human NOX1; greater than 50 µM at NOX5 [4]. This compound gave a CC50 at 1 h in the data set “in vitro” (CHO cells) greater than 50 µM.
